PMC6481345, “A novel anti-melanoma SRC-family kinase inhibitor” (Oncotarget, 2019)

Tests used:
phospho-SHP2 Y542 = test: Western blot, phospho-SHP2; format: cell-based, human; settings: melanoma cell lines
Experimental: We used standard techniques to identify changes in intracellular signaling in response to various treatments. Briefly, melanoma cells were incubated with test compounds, using DMSO as a control, collected by scraping on ice, and lysed in RIPA buffer supplemented with protease and phosphatase inhibitors (MA #78428, and #78425, respectively, Thermo Fisher Scientific, Waltham, MA). Protein concentrations were measured with the BioRad kit (Bio-Rad Laboratories, Hercules, CA), SDS sample buffer was added, extracts were heated at 95°C, sonicated and centrifuged. Cell extracts (20 µg/lane) were fractionated in 3%–8% or 4–12 % tris-acetate gel (NP0006, NuPAGE Life Technologies). […]

YUSIK melanoma tumors = test: In vivo tumor growth, YUSIK melanoma xenograft; settings: YUSIK tumor bearing nude mice, 20 mg/kg daily intraperitoneal from day 12, vs solvent control; 6 mice; p = 0.0006
Experimental: All procedures involving animals were approved by the Institutional Animal Care and Use Committee of Yale University. YUSIK melanoma cells were grown to 80% confluency in 150 cm^2 flasks, detached by trypsinization, washed with PBS, and cell pellets were resuspended in 1:1 mixture of PBS and matrigel (BD Bioscience Cat #354234) to sustain cell viability. The cells (4 × 10^6/100 µl) were injected subcutaneously in the back flank of six weeks old female athymic Nude-Foxn1nu (nu/nu) mice (Charles River Laboratories, Wilmington, MA), and tumors were measuring daily with a caliper (length, width, and depth). When tumors reached palpable size (between 25–40 mm^3), the animals were randomized by tumor size and body weigh into two groups and were daily injected intraperitoneally with SAB298 (batch #AU0588-91, Sabila Biosciences LLC, 5 Overlook Road, New City, New York, 10956) or vehicle as controls (N = 6/each). […] The vehicle contained the same reagents but without SAB298.

ERBB2 = ERBB2 (Homo sapiens, UniProt P04626); test: KiNativ in situ kinase profiling in melanoma cell lysates; format: binding; design: we tested the endogenous kinome response to SAB298; host or cells: YUSIV and YUSIK melanoma cell lysates; settings: for IC50: 3-point dose response
Experimental: (§1) The effect of SAB298 on a panel of 36 recombinant kinases, was screed with the radioisotope filter binding assay employing 10 concentrations of the compound with 10 µM ATP (Reaction Biology Corporation, Malvern, PA). In addition, we tested the endogenous kinome response to SAB298 (0.05 µM, 0.5 µM and 5 µM) in lysates from two melanoma cell lines (YUSIV and YUSIK) employing the KiNativ® platform (ActivX Biosciences Inc., La Jolla, CA). KiNativ® is a robust, high performance mass spectrometry (LC-MS^2) assay that uses biotinylated probes to measure relevant changes in the affinity to the ATP-binding sites of 205 native kinases as a function of cellular context. We also validated SAB298 effect on the activity of SRC-family kinases by probing for phosphorylated Y416, the marker of activated SFKs, with anti-IEDNEpYTAR antibodies (also known as Y419, #2101, Cell Signaling Technology, Beverly, MA). In some cases the cells were incubated overnight with 20 µM proteasome inhibitor MG-132 (CAS 133407-82-6, Millipore Sigma, Burlington, MA) to rescue degradation.

CSK = CSK (Homo sapiens, UniProt P41240); test: as above; format: binding; design: we tested the endogenous kinome response to SAB298; host or cells: YUSIV and YUSIK melanoma cell lysates; settings: 3-point dose response
Experimental: as §1

ABL2 = ABL2 (Homo sapiens, UniProt P42684); test: as above; format: binding; design: we tested the endogenous kinome response to SAB298; host or cells: YUSIV and YUSIK melanoma cell lysates; settings: 3-point dose response
Experimental: as §1

Sequence of ERBB2 (P04626 23-1255): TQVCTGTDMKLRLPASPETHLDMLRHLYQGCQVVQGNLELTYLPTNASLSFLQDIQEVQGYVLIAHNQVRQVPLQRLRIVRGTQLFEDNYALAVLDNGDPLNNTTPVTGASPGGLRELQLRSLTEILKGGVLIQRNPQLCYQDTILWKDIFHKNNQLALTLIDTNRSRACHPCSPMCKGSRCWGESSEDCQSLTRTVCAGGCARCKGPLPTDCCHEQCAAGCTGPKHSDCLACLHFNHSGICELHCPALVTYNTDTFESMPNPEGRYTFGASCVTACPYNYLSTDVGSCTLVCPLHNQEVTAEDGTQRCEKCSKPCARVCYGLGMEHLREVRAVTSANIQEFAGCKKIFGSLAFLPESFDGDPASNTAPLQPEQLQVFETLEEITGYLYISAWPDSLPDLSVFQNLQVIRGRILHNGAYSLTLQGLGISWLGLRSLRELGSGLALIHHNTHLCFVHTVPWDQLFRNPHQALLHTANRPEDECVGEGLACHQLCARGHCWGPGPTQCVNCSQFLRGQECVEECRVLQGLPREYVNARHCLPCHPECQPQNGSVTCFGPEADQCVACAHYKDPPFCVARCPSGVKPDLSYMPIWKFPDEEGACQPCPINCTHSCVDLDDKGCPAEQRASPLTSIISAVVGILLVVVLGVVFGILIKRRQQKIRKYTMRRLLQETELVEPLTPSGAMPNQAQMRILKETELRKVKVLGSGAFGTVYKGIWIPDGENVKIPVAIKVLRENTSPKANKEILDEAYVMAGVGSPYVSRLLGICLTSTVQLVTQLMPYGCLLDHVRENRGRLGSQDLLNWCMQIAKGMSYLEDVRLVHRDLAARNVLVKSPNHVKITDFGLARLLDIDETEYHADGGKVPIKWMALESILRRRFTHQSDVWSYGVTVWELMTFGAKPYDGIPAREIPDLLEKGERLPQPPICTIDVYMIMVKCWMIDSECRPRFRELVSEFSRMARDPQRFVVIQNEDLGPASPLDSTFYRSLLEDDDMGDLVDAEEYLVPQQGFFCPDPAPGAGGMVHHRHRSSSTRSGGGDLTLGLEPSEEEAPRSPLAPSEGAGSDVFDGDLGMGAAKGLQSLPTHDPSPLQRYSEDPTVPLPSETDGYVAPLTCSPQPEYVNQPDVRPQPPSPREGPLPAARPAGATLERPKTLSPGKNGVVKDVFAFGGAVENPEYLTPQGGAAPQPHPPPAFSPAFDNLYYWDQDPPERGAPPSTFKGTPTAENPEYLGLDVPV
Sequence of CSK (P41240 whole entry): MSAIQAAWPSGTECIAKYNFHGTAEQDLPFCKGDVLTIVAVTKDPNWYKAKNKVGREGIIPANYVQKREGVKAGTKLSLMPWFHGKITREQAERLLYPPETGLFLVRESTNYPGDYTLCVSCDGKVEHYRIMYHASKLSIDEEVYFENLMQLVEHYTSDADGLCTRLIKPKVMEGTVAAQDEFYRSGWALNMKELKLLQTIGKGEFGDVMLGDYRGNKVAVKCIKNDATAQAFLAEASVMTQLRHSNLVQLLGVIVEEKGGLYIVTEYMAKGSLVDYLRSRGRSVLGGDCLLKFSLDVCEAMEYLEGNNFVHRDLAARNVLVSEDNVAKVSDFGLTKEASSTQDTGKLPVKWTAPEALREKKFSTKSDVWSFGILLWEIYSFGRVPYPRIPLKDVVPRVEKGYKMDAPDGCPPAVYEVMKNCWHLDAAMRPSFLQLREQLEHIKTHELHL
Sequence of ABL2 (P42684 whole entry): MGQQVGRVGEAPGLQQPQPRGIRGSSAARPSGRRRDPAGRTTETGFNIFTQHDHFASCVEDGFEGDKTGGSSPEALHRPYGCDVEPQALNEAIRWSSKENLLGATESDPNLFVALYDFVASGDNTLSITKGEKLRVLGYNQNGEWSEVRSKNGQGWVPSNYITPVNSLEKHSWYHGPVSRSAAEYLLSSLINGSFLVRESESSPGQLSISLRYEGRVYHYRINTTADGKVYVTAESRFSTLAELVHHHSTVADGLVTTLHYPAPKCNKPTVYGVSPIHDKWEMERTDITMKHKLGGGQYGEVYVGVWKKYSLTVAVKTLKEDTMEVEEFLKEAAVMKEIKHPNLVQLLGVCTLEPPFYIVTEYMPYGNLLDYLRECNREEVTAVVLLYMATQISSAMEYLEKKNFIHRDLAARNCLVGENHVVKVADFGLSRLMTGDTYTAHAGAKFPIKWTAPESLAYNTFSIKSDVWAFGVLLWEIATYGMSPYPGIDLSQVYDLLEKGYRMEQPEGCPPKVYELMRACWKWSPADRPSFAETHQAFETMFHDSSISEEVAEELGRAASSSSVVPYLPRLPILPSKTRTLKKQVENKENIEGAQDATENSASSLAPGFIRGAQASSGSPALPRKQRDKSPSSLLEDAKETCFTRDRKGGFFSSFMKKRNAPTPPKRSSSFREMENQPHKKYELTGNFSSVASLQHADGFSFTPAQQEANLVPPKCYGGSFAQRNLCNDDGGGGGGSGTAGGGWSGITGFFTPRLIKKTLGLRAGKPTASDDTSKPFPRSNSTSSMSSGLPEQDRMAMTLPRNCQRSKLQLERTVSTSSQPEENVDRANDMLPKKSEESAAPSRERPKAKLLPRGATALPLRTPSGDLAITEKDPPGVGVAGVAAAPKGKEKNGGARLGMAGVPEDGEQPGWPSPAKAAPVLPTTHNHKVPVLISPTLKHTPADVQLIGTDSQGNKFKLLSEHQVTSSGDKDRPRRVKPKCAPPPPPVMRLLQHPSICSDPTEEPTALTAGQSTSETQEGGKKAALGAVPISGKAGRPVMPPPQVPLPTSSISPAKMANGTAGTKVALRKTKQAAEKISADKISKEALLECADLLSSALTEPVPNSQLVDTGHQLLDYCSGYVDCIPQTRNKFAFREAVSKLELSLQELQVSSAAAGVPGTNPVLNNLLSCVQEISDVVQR

Q: Which results are given for `Nc1ncnc2c1c(-c1ccc(Oc3ccccc3)cc1)nn2C[C@@H]1SSC[C@@H]1O` [SAB298, (3S, 4S)-3-((4-amino-3-(4-phenoxyphenyl)-1H-pyrazolo[3,4-d]pyrimidin-1-yl)methyl)-1,2-dithiolan-4-ol]?
A: phospho-SHP2 Y542 level (phospho-SHP2 Y542): inactivated phospho-SHP2 Y542 in YUSIK, YUROB and YUSOC melanoma cell lines, but not in YUGASP; Tumor growth (YUSIK melanoma tumors): significantly suppressed the growth; higher binding affinity in KiNativ assay compared to radioisotope filtration binding assay (ERBB2; ERBB2): ~20 fold; IC50 (ERBB2; ERBB2 in YUSIK lysate): 0.53 µM; IC50 (ERBB2; ERBB2 in YUSIV lysate): 0.41 µM; IC50 (CSK; CSK in YUSIK lysate): 0.91 µM; IC50 (CSK; CSK in YUSIV lysate): 0.42 µM; IC50 (ABL2; ABL2 in YUSIK lysate): 0.24 µM; IC50 (ABL2; ABL2 in YUSIV lysate): 0.087 µM
